Publication PMC4267990 (Journal of controlled release : official journal of the …, 2014)
≈ marks a conversion by molar mass, not a printed value. Like-named read-outs stand apart in the source and are kept apart here.

How the values were obtained:
[1] = In vitro DOX cumulative release kinetics by dialysis; assay type: physicochemical; conditions: DPBS pH 7.4 with 0.5% Tween 80, 37 °C, 1 mg DOX/mL
4T1.2 cells = experiment: In vitro cytotoxicity, MTT assay; assay type: cell-based, mouse; conditions: 72 h, DOX concentration
NCI/ADR-RES cells = experiment: Intracellular uptake of DOX; assay type: cell-based; conditions: 6 μg/mL DOX, 1 h (similar at 3 h)
4T1.2 tumor = experiment: In vivo antitumor efficacy, 4T1.2 syngeneic murine breast cancer model; parameters: species or system female BALB/c mice; conditions: 10 mg DOX/kg i.v., three consecutive injections
PC-3 xenograft tumor = experiment: In vivo antitumor efficacy, PC-3 human prostate cancer xenograft; parameters: species or system male nude mice; conditions: 5 mg/kg i.v. on days 1, 4, 7; based on RTV on day 19
KB 8-5 xenograft tumor = experiment: In vivo antitumor efficacy, drug-resistant KB 8-5 xenograft; parameters: species or system female nude mice; conditions: for Tumor growth inhibition rate IR: based on RTV on day 22
[2] = single i.v.; for Animal death: dead/treated mice
[3] = DOX pharmacokinetics after i.v. administration; conditions: 5 mg DOX/kg

COc1cccc2c1C(=O)c1c(O)c3c(c(O)c1C2=O)C[C@@](O)(C(=O)CO)C[C@@H]3O[C@H]1C[C@H](N)[C@H](O)[C@H](C)O1 [DOX, Doxorubicin]
amount of released DOX ([1]; after 74 h): 96.35%
DOX released ([1]; first 9 h): 92.14%
IC50 (4T1.2 cells): 0.1867 mg/L (≈ 0.343 µM)
DOX fluorescence signals in cells (confocal imaging) (NCI/ADR-RES cells): Least amounts of fluorescence signals
mortality from systemic toxicity (4T1.2 tumor): all of the mice treated with free DOX died from systemic toxicity on day 7
Tumor growth inhibition rate IR (PC-3 xenograft tumor): 38.72%
Tumor growth inhibition rate IR (KB 8-5 xenograft tumor; 5 mg/kg i.v. on days 1, 4, 7): 6.13%
Tumor growth inhibition rate IR (KB 8-5 xenograft tumor; 7.5 mg/kg i.v. on days 1, 4, 7): 20.91%
body weight change (KB 8-5 xenograft tumor; 5 and 7.5 mg/kg i.v. on days 1, 4, 7): significant weight loss
Weight loss ([2]; 5 mg/kg): 2.2%
Animal death ([2]; 5 mg/kg): 0/3
Weight loss ([2]; 10 mg/kg): 7.8%
Animal death ([2]; 10 mg/kg): 0/3
Animal death ([2]; 15 mg/kg): 2/3
Animal death ([2]; 15 mg/kg, listed as free DOX): 2 out of 3
AUC [3]: 5.43 ± 0.11 µg·h/mL
CL [3]: 18.40 ± 2.39 mL/h
Vd [3]: 25.32 ± 2.15 mL
t1/2 ([3]; non-compartment model): 4.20 ± 0.35 h
